Reference: patent US6861448B2, “NAD synthetase inhibitors and uses thereof” (priority 1998, dated 2005)

Biological target: NAD synthetase (Bacillus subtilis, UniProt P08164)
Assay: NAD synthetase coupled enzyme assay
Format: biochemical
Conditions: not given
Source text: This Example illustrates the NAD synthetase enzyme inhibiting activity of some compounds of the present invention. [drawing 48] The coupled assay—production of NAD was monitored through conversion to NADH by alcohol dehydrogenase. [NADH] was monitored by 2 parallel methods: the change in absorbance at 340 nm, and fluorescence at 460 nm (excitation 320 nm). […] Controls were included for determining inhibitor background, precipitation, and ADH inhibition.

Chain of NAD synthetase (P08164 whole entry): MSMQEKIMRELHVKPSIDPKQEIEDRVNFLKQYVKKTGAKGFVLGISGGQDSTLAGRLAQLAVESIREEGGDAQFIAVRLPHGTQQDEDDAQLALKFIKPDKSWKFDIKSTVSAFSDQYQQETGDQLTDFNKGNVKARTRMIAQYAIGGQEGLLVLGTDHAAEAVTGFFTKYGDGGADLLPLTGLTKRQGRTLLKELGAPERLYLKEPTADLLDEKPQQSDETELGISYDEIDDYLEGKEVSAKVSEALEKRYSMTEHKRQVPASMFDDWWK

Structure (SMILES) | IC50 [µM]
N=C(N)N[C@H](COCCCCCCCCOc1ccc(OCc2ccccc2)cc1)Cc1ccccc1 [Compound 1679] | 10.4

Same assay, conditions: NAD synthetase 2.0 μg/mL; 0.1 mM NaAD; 0.2 mM ATP; pH 8.5

Structure (SMILES) | IC50 [µM]
C[N+](C)(C)C(Cc1ccccc1)C(=O)NCCCCCCCCOc1ccc(OC(=O)c2cc(F)c(F)c(F)c2)cc1 (centres unmarked) [Compound 1621] | 25.5
CC(=O)Oc1ccc(C(=O)Oc2ccc(OCCCCCCCCOC(=O)C(Cc3ccccc3)[N+](C)(C)C)cc2)cc1 (centres unmarked) [Compound 1475] | 22.6
C[N+]1([C@@H](Cc2ccccc2)C(=O)OCCCCCCCCOc2ccc(OCc3ccccc3)cc2)CCCC1 [Compound 1336] | 19.4
C[N+](C)(C)C(Cc1ccccc1)C(=O)NCCCCCCCCOc1ccc(OC(=O)c2cc(F)ccc2F)cc1 (centres unmarked) [Compound 1611] | 23.3
C[N+]1([C@@H](Cc2ccccc2)C(=O)NCCCCCCCCOc2ccc(OCc3ccccc3)cc2)CCCC1 [Compound 1495] | 33.4
C[N+](C)(C)C(Cc1ccccc1)C(=O)OCCCCCCCCOc1ccc(OC(=O)c2ccc(C#N)cc2)cc1 (centres unmarked) [Compound 1479] | 18.6
C[N+](C)(C)C(Cc1ccccc1)C(=O)OCCCCCCCCOc1ccc(OCc2ccccc2Cl)cc1 (centres unmarked) [Compound 1390] | 14.2
C[N+](C)(C)c1ccc(CC(=O)OCCCCCCCCOc2ccc(OCc3ccccc3Cl)cc2)cc1 [Compound 1396] | 15.1
C[N+](C)(C)C(Cc1ccc([N+](=O)[O-])cc1)C(=O)OCCCCCCCCOc1ccc(OCc2ccccc2)cc1 (centres unmarked) [Compound 1405] | 18.8
C[N+](C)(C)C(Cc1ccccc1)C(=O)OCCCCCCCCOc1ccc(OC(=O)c2ccccc2)cc1 (centres unmarked) [Compound 1431] | 18.2
COc1ccccc1COc1ccc(OCCCCCCCCOC(=O)C(Cc2ccccc2)[N+](C)(C)C)cc1 (centres unmarked) [Compound 1387] | 20.5
C[n+]1cccc(C(=O)NCCCCCCCCOc2ccc(OC(=O)c3ccc(Cl)cc3)cc2)c1 [Compound 1653] | 19.5
C[N+](C)(C)c1ccc(CC(=O)NCCCCCCCCOc2ccc(OC(=O)c3cc(Cl)ccc3Cl)cc2)cc1 [Compound 1634] | 21.2
C[N+](C)(C)c1ccc(CC(=O)NCCCCCCCCOc2ccc(OC(=O)c3c(Cl)cc(Cl)cc3Cl)cc2)cc1 [Compound 1645] | 18.1
C[N+](C)(C)C(Cc1ccccc1)C(=O)OCCCCCCCCOc1ccc(OC(=O)c2ccc(S(N)(=O)=O)cc2)cc1 (centres unmarked) [Compound 1485] | 34.8
C[N+](C)(C)C(Cc1ccccc1)C(=O)NCCCCCCCCOc1ccc(OC(=O)c2c(Cl)cc(Cl)cc2Cl)cc1 (centres unmarked) [Compound 1616] | 38.5
C[N+](C)(C)C(Cc1ccccc1)C(=O)OCCCCCCCCOc1ccc(OCc2ccccc2)cc1 (centres unmarked) [Compound 1338] | 23
C[N+](C)(C)C(Cc1ccccc1)C(=O)NCCCCCCCCOc1ccc(OC(=O)c2cccc(Cl)c2Cl)cc1 (centres unmarked) [Compound 1603] | 34.9
C[N+](C)(C)c1ccc(CC(=O)NCCCCCCCCOc2ccc(OC(=O)c3cccc(Cl)c3)cc2)cc1 [Compound 1623] | 33.9
C[N+](C)(C)C(Cc1ccccc1)C(=O)NCCCCCCCCOc1ccc(OC(=O)c2ccc(F)c(F)c2)cc1 (centres unmarked) [Compound 1613] | 19.1
C[N+](C)(C)C(Cc1ccccc1)C(=O)NCCCCCCCCOc1ccc(OC(=O)c2cc(Cl)cc(Cl)c2)cc1 (centres unmarked) [Compound 1608] | 26.3
C[N+](C)(C)c1ccc(CC(=O)NCCCCCCCCOc2ccc(OC(=O)c3cccc(Cl)c3Cl)cc2)cc1 [Compound 1632] | 18.5
C[N+](C)(C)c1ccc(CC(=O)NCCCCCCCCOc2ccc(OC(=O)c3cc(Cl)cc(Cl)c3Cl)cc2)cc1 [Compound 1644] | 23.9
C[N+](C)(C)C(Cc1ccccc1)C(=O)NCCCCCCCCOc1ccc(OC(=O)c2ccccc2F)cc1 (centres unmarked) [Compound 1596] | 28
C[N+](C)(C)c1ccc(CC(=O)OCCCCCCCOC(=O)c2ccc(OCc3ccccc3)cc2)cc1 [Compound 1359] | 42.2

Structure (SMILES) | IC50 [µM]
C[N+](C)(C)C(Cc1ccccc1)C(=O)NCCCCCCCCOc1ccc(OC(=O)c2ccc(F)cc2F)cc1 (centres unmarked) [Compound 1610] | 30.4
C[N+](C)(C)C(Cc1ccccc1)C(=O)NCCCCCCCCOc1ccc(OC(=O)c2c(Cl)cccc2Cl)cc1 (centres unmarked) [Compound 1606] | 39.1
C[n+]1cccc(C(=O)NCCCCCCCCOc2ccc(OC(=O)c3ccc(Cl)c(Cl)c3)cc2)c1 [Compound 1665] | 19.6
C[N+](C)(C)C(Cc1ccccc1)C(=O)OCCCCCCCCOc1ccc2c(c1)C(=O)CC(c1ccccc1)O2 (mixture of isomers) [Compound 1370] | 16.9
CC(=O)Oc1ccc(C(=O)Oc2ccc(OCCCCCCCCNC(=O)C(Cc3ccccc3)[N+](C)(C)C)cc2)cc1 (centres unmarked) [Compound 1599] | 44
CC[N+]1([C@@H](Cc2ccccc2)C(=O)OCCCCCCCCOc2ccc(OCc3ccccc3)cc2)CCCC1 [Compound 1442] | 21.4
CC(C)Oc1ccc(C(=O)Oc2ccc(OCCCCCCCCOC(=O)C(Cc3ccccc3)[N+](C)(C)C)cc2)cc1 (centres unmarked) [Compound 1477] | 14
N=C(N)N[C@@H](Cc1ccccc1)C(=O)NCCCCCCCCOc1ccc(OCc2ccccc2)cc1 [Compound 1682] | 17.6
C[N+](C)(C)C(Cc1ccccc1)C(=O)NCCCCCCCCOc1ccc(OC(=O)c2cccc(F)c2F)cc1 (centres unmarked) [Compound 1609] | 20.7
CN(C)[C@@H](Cc1ccccc1)C[N+](C)(C)CCCCCCCCOc1ccc(OCc2ccccc2)cc1 [Compound 1498] | 39.4
C[N+](C)(C1CCOCC1)[C@@H](Cc1ccccc1)C(=O)OCCCCCCCCOc1ccc(OCc2ccccc2)cc1 [Compound 1358] | 46.6
C[N+](C)(C)C(Cc1ccccc1)C(=O)NCCCCCCCCOc1ccc(OC(=O)c2cc(F)c(F)cc2F)cc1 (centres unmarked) [Compound 1619] | 22.3
C[N+](C)(C)c1ccc(CC(=O)OCCCCCCCCCCCOc2ccc(OCc3ccccc3)cc2)cc1 [Compound 1323] | 48.2
CCC[N+]1([C@@H](Cc2ccccc2)C(=O)OCCCCCCCCOc2ccc(OCc3ccccc3)cc2)CCCC1 [Compound 1443] | 27.9
CC(C)Oc1ccc(C(=O)Oc2ccc(OCCCCCCCCNC(=O)C(Cc3ccccc3)[N+](C)(C)C)cc2)cc1 (centres unmarked) [Compound 1600] | 28.7
N=C(N)N[C@@H](Cc1ccccc1)C(=O)NCCCCCCCCOc1ccc(OCc2ccccc2)cc1 [Compound 1681] | 12.9
C[N+](C)(C)C(Cc1ccccc1)C(=O)NCCCCCCCCOc1ccc(OC(=O)c2ccc(Cl)cc2Cl)cc1 (centres unmarked) [Compound 1604] | 21.1
C[N+](C)(C)c1ccc(CC(=O)NCCCCCCCCOc2ccc(OC(=O)c3ccc(Cl)cc3Cl)cc2)cc1 [Compound 1633] | 20.4
C[N+](C)(C)[C@@H](Cc1ccccc1)C(=O)OCCCCCCCCOc1ccc2oc(-c3ccccc3)cc(=O)c2c1 [Compound 1371] | 19.1
C[N+](C)(C)C(Cc1ccccc1)C(=O)OCCCCCCCn1ccc2cc(OCc3ccccc3)ccc21 (centres unmarked) [Compound 1408] | 30.5
CSc1ccc(C(=O)Oc2ccc(OCCCCCCCCOC(=O)C(Cc3ccccc3)[N+](C)(C)C)cc2)cc1 (centres unmarked) [Compound 1478] | 15.8
C[N+](C)(C)c1ccc(CC(=O)NCCCCCCCCOc2ccc(OC(=O)c3cc(Cl)cc(Cl)c3)cc2)cc1 [Compound 1637] | 23.3
C[N+](C)(C)c1ccc(CC(=O)NCCCCCCCCOc2ccc(OC(=O)c3ccc(Cl)cc3)cc2)cc1 [Compound 1624] | 31.2
CC[N+]1([C@@H](Cc2ccccc2)C(=O)NCCCCCCCCOc2ccc(OCc3ccccc3)cc2)CCCC1 [Compound 1501] | 38.2
